Test results taken from article PMC10545747, “Development of cyclopeptide inhibitors of cGAS targeting protein-DNA interaction and phase separation” (Nature Communications, 2023).
Where “and” joins values, the source holds several entries; their conditions need not be identical. Equal entries are not always repeated. Square brackets hold non-standard residues; d marks the D form. Peptide text beside a SMILES is read from it.

How the values were obtained:
[1] = molecular target: T1, recombinant human cGAS enzyme (hcGAS-ΔN, residues 147–522) (Homo sapiens, UniProt Q8N884); experiment: RNA-based fluorescent biosensor assay of cGAS activity (2',3'-cGAMP formation), in vitro screening; format: biochemical
T1 construct: N-terminally truncated human cGAS (hcGAS-ΔN, residues 147–522); 6xHis-SUMO (N, cleaved yes); made in house; host or cells: Escherichia coli BL21 (DE3)
Summary of the method: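 In 40 mM Tris-HCl pH 7.5, 100 mM NaCl, 10 mM MgCl2, ISD (0.5 μM) started the reaction with hcGAS-ΔN (1.5 μM), ATP (1 mM) and GTP (1 mM). Incubation was 2 h at 37 °C, with compounds screened at 20 μM. 2',3'-cGAMP formed was quantified with an RNA-based fluorescent biosensor.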

[2] = in vitro; settings: mouse, Cell viability (Fig. S2e)
Description: (§1) Cell viability was measured by cell counting kit-8 (TargetMol) according to the manufacturer’s instructions. […]
(§2) (e-g) THP1 cells (e), L929 cells (f) and RAW264.7 cells (g) were exposed to the indicated doses of XQ2 for 48h, the cell viability was measured by CCK8 assay. Data are representative of three independent experiments in (a-g). (Data are presented as mean ± SD, n = 3 independent samples in (a-g), **p < 0.01, ***p < 0.001, ****p < 0.0001 using one-way ANOVA with Dunnett’s post hoc test).
(§3) Source data are provided as a Source Data file.

[3] = tested on: L929 cells; experiment: in vitro; settings: for Cell viability (Fig. S2e): L929 (48h)
Description: as §1, §2, §3

[4] = tested on: RAW264.7 cells; experiment: in vitro; settings: for Cell viability (Fig. S2e): RAW264.7 (48h)
Description: as §1, §2, §3

[5] = molecular target: human cGAS (hcGAS) (Homo sapiens, UniProt Q8N884); experiment: biochemical; settings: MST
Description: The binding ability of XQ2 with Cy5-ISD and XQ2 with human cGAS were tested using NanoTemper Monolith NT.115 instrument (20% LED, 40% MST power) at 25 °C. Serial dilutions of XQ2 were mixed with 10 nM of Cy5-ISD or 100 nM of fluorescent labeled hcGAS, incubated for 10 min at room temperature in HEPES buffer (50 mM HEPES, pH 7.5, 200 mM NaCl, 20 mM MgCl2, 0.05% Tween 20) with or without 1 mM ATP and 0.5 mM GTP or 2 M (NH4)2SO4 (Sigma-Aldrich). Excitation was optimized by varying the power to obtain fluorescence intensities above 200 counts. Data were analyzed by using the MO.Affinity Analysis software.

[6] = tested on: cGAS-knockout Hela cells reconstituted with EGFP-hcGAS-FL; experiment: Live-cell imaging of cGAS-DNA puncta; format: cell-based, human; settings: 10 μM, 4 h
Description: cGAS-knockout Hela cells reconstituted with EGFP-tagged full-length human cGAS (EGFP-hcGAS-FL) were obtained by transfecting pEGFP-C2-hcGAS-FL recombinant plasmid, and were seeded into 20-mm glass-bottom cell culture dish (NEST). Cell culture media was replaced with fresh medium for 1 h, then cells were stimulated by transfection of ISD by lipofectamine 2000 (Invitrogen) after DMSO or XQ2 (10 μM) treatment for the indicated time. The cells were rinsed three times with PBS, and live-cell imaging was performed by using Nikon A1R+ confocal microscope with a 40× oil objective, Nikon A1 camera, and X-Cite 120LED laser. Images were analyzed by FIJI software.

Chain of human cGAS (hcGAS) (Q8N884 whole entry): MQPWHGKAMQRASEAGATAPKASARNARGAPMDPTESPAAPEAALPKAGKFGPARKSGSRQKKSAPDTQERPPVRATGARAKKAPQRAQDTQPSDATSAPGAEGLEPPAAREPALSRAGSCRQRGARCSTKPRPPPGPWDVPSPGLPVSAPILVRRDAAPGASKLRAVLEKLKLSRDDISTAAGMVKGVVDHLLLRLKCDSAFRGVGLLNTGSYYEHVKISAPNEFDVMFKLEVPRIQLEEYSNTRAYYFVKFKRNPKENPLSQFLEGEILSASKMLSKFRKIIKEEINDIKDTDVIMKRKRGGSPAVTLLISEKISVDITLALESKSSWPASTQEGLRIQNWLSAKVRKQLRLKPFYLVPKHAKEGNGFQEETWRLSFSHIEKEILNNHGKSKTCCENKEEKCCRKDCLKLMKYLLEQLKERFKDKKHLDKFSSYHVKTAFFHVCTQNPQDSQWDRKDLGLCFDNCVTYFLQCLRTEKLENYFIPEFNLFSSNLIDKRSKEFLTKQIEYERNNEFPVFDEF
T1 sequence (Q8N884 147-522, stated change not applied): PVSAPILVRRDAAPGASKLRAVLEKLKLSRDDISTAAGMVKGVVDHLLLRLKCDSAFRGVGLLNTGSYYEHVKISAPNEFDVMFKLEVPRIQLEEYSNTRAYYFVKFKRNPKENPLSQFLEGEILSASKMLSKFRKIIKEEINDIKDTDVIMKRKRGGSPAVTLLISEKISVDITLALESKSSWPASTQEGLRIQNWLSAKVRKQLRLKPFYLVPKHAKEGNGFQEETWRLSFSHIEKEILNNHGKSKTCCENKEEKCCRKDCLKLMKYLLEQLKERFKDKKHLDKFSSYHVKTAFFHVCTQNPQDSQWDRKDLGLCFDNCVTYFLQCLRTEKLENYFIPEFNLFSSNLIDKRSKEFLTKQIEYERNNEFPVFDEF

Structure (SMILES): CC(C)C[C@@H]1NC(=O)[C@H](CCCNC(=N)N)NC(=O)[C@H](C(C)C)NC(=O)[C@@H]2CCCN2C(=O)[C@@H](Cc2ccccc2)NC(=O)[C@H](CC(C)C)NC(=O)[C@H](CCCNC(=N)N)NC(=O)[C@H](C(C)C)NC(=O)[C@H](C)NC(=O)[C@@H](Cc2ccccc2)NC1=O [XQ2, Cyclo (LfAVRLfPVR)] (cyclo(L[dF]AVRL[dF]PVR))
- Remaining activity (%), Fig. 1a source data ([1]; 20 μM, replicate values): 59.4781% and 59.6712%
- remaining activity at 20 µM ([1]; 20 μM, replicate values, read-out: Remaining activity (%), Fig. 1a source data): 59.5%
- Inhibition % ([1]; peptides screened at 20 μM, Supplementary Table 1 / Fig. S5b, 20 µM): ≥ 40%
- inhibition at 20 µM ([1]; peptides screened at 20 μM, Supplementary Table 1 / Fig. S5b, read-out: Inhibition %): 40%
- viability at 48 h, 0.23 µM ([2]; L929 cells, L929 (48h), XQ2 0.23 μM): 108%
- viability at 48 h, 0.47 µM ([2]; L929 cells, L929 (48h), XQ2 0.47 μM): 90.1%
- viability at 48 h, 0.94 µM ([2]; L929 cells, L929 (48h), XQ2 0.94 μM): 83.6%
- viability at 48 h, 1.88 µM ([2]; L929 cells, L929 (48h), XQ2 1.88 μM): 85.4%
- viability at 48 h, 3.75 µM ([2]; L929 cells, L929 (48h), XQ2 3.75 μM): 90%
- viability at 48 h, 7.5 µM ([2]; L929 cells, L929 (48h), XQ2 7.5 μM): 93.1%
- viability at 48 h, 15 µM ([2]; L929 cells, L929 (48h), XQ2 15 μM): 86.3%
- viability at 48 h, 0.16 µM ([2]; RAW264.7 cells, RAW264.7 (48h), XQ2 0.16 μM): 100%
- viability at 48 h, 0.31 µM ([2]; RAW264.7 cells, RAW264.7 (48h), XQ2 0.31 μM): 102%
- viability at 48 h, 0.63 µM ([2]; RAW264.7 cells, RAW264.7 (48h), XQ2 0.63 μM): 104%
- viability at 48 h, 1.25 µM ([2]; RAW264.7 cells, RAW264.7 (48h), XQ2 1.25 μM): 104%
- viability at 48 h, 2.5 µM ([2]; RAW264.7 cells, RAW264.7 (48h), XQ2 2.5 μM): 104%
- viability at 48 h, 5 µM ([2]; RAW264.7 cells, RAW264.7 (48h), XQ2 5 μM): 102%
- viability at 48 h, 10 µM ([2]; RAW264.7 cells, RAW264.7 (48h), XQ2 10 μM): 103%
- Cell viability (Fig. S2e) ([3]; XQ2 0.23 μM): 110.662 and 106.618
- Cell viability (Fig. S2e) ([3]; XQ2 0.47 μM): 92.2794 and 86.3971
- Cell viability (Fig. S2e) ([3]; XQ2 0.94 μM): 87.1324 and 89.2157
- Cell viability (Fig. S2e) ([3]; XQ2 1.88 μM): 84.4363 and 91.299
- Cell viability (Fig. S2e) ([3]; XQ2 3.75 μM): 94.6078 and 92.0343
- Cell viability (Fig. S2e) ([3]; XQ2 7.5 μM): 92.2794 and 92.1569
- Cell viability (Fig. S2e) ([3]; XQ2 15 μM): 85.049 and 94.6078
- cytotoxicity ([3]; L929, 48h): no cytotoxicity
- Cell viability (Fig. S2e) ([4]; XQ2 0.16 μM): 99.8864 and 99.6917
- Cell viability (Fig. S2e) ([4]; XQ2 0.31 μM): 112.786 and 105.825
- Cell viability (Fig. S2e) ([4]; XQ2 0.63 μM): 111.812 and 107.48
- Cell viability (Fig. S2e) ([4]; XQ2 1.25 μM): 113.808 and 104.608
- Cell viability (Fig. S2e) ([4]; XQ2 2.5 μM): 105.825 and 105.241
- Cell viability (Fig. S2e) ([4]; XQ2 5 μM): 107.821 and 104.219
- Cell viability (Fig. S2e) ([4]; XQ2 10 μM): 108.843 and 106.117
- cytotoxicity ([4]; RAW264.7, 48h): no cytotoxicity
- Kd ([5]; absence of ATP/GTP and (NH4)2SO4 (Mock)): 45.3 ± 26.9 µM
- Kd ([5]; in the presence of (NH4)2SO4 (2M)): 1.8 ± 0.6 µM
- Kd ([5]; in the presence of ATP (1mM) and GTP (0.5mM)): 4.5 ± 1.6 µM
- puncta formation of EGFP-cGAS with ISD [6]: markedly inhibited the puncta formation of EGFP-cGAS with ISD
